This assay deals with SPOP MATH WT (Homo sapiens, UniProt O43791). Nature of the assay: Equilibrium binding, FRET (Trp to dansyl), fluorescence titration. The following applies: read-out: Equilibrium KD; dansylated peptide 0 to 40 µM; constant SPOP MATH WT (2 µM in methods, 1 µM in results); excitation 280 nm, emission 300-400 nm; 298 K; hyperbolic fit. From the text:
The MATH domain of SPOP exerts its functions by specifically recognizing different substrates and, therefore, acting as an adaptor module between SPOP and its physiological ligands. In an effort to provide a complete characterization of SPOP MATH binding mechanisms, we investigated the recognition of three peptides mimicking a specific region of the substrates Puc (region 96–105), MacroH2A (region 166–179), and PTEN (region 354–368). […] Moreover, the three-dimensional structure of SPOP MATH in complexes with each of the peptides has been previously reported (3HQH, 3HQL, and 4OV1 PDB entries, respectively). Similar to previous work on other protein–protein recognition modules, we employed peptides carrying a covalently attached N-terminal dansyl fluorophore. Binding was then followed by measuring the FRET (Forster resonance energy transfer) between the three tryptophan residues of the SPOP MATH domain (donor) and the dansyl group of the peptides (acceptor).
To address the equilibrium binding affinity of SPOP MATH and its substrates, a fixed concentration of the protein (1 µM) was challenged with increasing peptide concentrations. In all cases, the fluorescence-monitored transition returned a hyperbolic behavior as described in the Section 4, which allowed estimating a dissociation constant of 1.4 ± 0.4 µM, 1.6 ± 0.2 µM, and 5.5 ± 0.5 µM for Puc, MacroH2A, and PTEN, respectively (Figure 2). These values appear partly consistent with what was previously reported by Zhuang et al. by using surface plasmon resonance. […]
Equilibrium binding experiments were performed on a Fluoromax-4 single-photon-counting spectrofluorometer (Jobin-Yvon, Newark, NJ, USA). The SPOP MATH domain was excited at 280 nm and emission spectra were recorded between 300 and 400 nm, at increasing dansylated peptide concentrations. […]

Where a SMILES comes first, the peptide text is derived from it.

As usually defined, the Kd is the free concentration of one partner at which half of the binding sites on the other are occupied at equilibrium, for simple one-to-one binding.

Sequence of SPOP MATH WT (O43791 1-182): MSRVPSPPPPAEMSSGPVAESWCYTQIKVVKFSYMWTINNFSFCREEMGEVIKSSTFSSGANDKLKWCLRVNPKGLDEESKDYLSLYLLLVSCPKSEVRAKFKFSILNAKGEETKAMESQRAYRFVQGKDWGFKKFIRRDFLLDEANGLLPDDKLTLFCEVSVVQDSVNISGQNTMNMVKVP

`CC(C)[C@H](NC(=O)[C@H](CCC(=O)O)NC(=O)[C@H](CC(=O)O)NS(=O)(=O)c1cccc2c(N(C)C)cccc12)C(=O)N[C@H](C(=O)N[C@@H](CO)C(=O)N[C@H](C(=O)N[C@H](C(=O)N[C@@H](CO)C(=O)N[C@@H](CO)C(=O)N[C@@H](CO)C(=O)O)[C@@H](C)O)[C@@H](C)O)[C@@H](C)O` [Puc] (HELM PEPTIDE1{[CN(C)c1cccc2c(S(=O)(=O)[*:2])cccc12].D.E.V.T.S.T.T.S.S.S}$$$$V2.0): the Kd was 1.4 ± 0.5 µM.

These data come from article PMC10298926, “Biophysical Characterization of the Binding Mechanism between the MATH Domain of SPOP and Its Physiological Partners” (International Journal of Molecular Sciences, 2023).
